The values below come from patent publication US8974823B2, “Solid compositions of low-solubility drugs and poloxamers” (Bend Research, Inc., priority 2003, dated 2015).

The nature of data set [1]: in vivo test of oral powder for constitution in fasted male beagle dogs (plasma Drug 4). The note with it: dog, oral gavage OPC. On the procedure: The composition of Example 16 was used as oral powders for constitution (OPC) for evaluating the performance of the compositions in in vivo tests using male beagle dogs. The OPC was dosed as a suspension in a solution containing 0.5 wt % […] METHOCEL® (from Dow Chemical Co.), and was prepared as follows. First, 7.5 g of METHOCEL® was weighed out and added slowly to approximately 490 mL of water at 90-100° C. to form a METHOCEL® suspension. After all the METHOCELS® was added, 1000 mL of cool/room temperature water was added to the suspension, which was then placed in an ice water bath. When all of the METHOCEL® had dissolved, 2.55 g of polyoxyethylene 20 sorbitan monooleate (TWEEN 80) were added and the mixture stirred until the TWEEN 80 had dissolved, thus forming a stock suspension solution.
To form the OPC, sufficient quantity of the test composition to result in a 90 mgA amount of Drug 4 was weighed and placed into a mortar. (“mgA” refers to mg of active drug.) A 20 mL quantity of the stock suspension solution was added to the mortar and the test composition was mixed with a pestle. […]
Six male beagle dogs were each dosed with the OPC. […] Whole blood samples were taken from the jugular vein and analyzed for the concentration of Drug 4 using the following procedure. […]

Data set [2] can be described thus: aqueous solubility of the drug. The settings on record: aqueous solution.
For data set [3] the following is noted: drugs of prior-art compositions, background section; cited from earlier work.

Structures are written as SMILES. In brackets after ≈: the same amount, converted by molar mass.

In general, Cmax refers to the maximum level reached in the sampled fluid or tissue. In the case of `CCOC(=O)N1c2ccc(C(F)(F)F)cc2[C@@H](N(Cc2cc(C(F)(F)F)cc(C(F)(F)F)c2)C(=O)OC)C[C@H]1CC` [Control C7, Torcetrapib], the maximum concentration (Cmax) in data set [1] (90 mgA Drug 4) was under 100 ng/mL. The AUC(0-t) in data set [1] (90 mgA Drug 4, read-out: AUC(0–24)) is under 200 ng·h/mL.
What is called solubility is the dissolved amount per volume that the medium holds. Read a low solubility as a poorly soluble substance. The compound `Cc1c(O)cccc1C(=O)N[C@@H](CSc1ccccc1)[C@H](O)CN1C[C@H]2CCCC[C@H]2C[C@H]1C(=O)NC(C)(C)C` [Drug 3, N-(1,1-dimethylethyl) decahydro-2-[(2R,3R)-2-hydroxy-3-[(3-hydroxy-2-methylbenzoyl)amino]-4-(phenylthio)butyl]-3-isoquinolinecarboxamide (3s, 4aS, 8aS)-monomethanesulfonate] gave a solubility in data set [2] of about 6 µg/mL (≈ 10.6 µM).
With `COc1ccccc1OCCNCC(O)COc1cccc2[nH]c3ccccc3c12` (stereo not shown) [carvedilol], the “glass transition temperature (Tg)” value in data set [3] is “about 39 °C”.
